Assays:
[1] = test system: OVCAR8.EGFP flank xenografts; assay: Subcutaneous flank OVCAR8 xenograft model; type: in vivo, mouse
Method: Female athymic nude mice 6-8 weeks of age (Charles River) were maintained under specific pathogen-free conditions at the COH Animal Resource Center, and all procedures were reviewed and approved by the COH Animal Care Committee. A subcutaneous flank xenograft model in nude mice was established using an EGFP and firefly luciferase-expressing ovarian cancer cell line, 2×10^6 OVCAR8.EGFP.ffluc. […] The mice were treated for […] with 1 week off in between each cycle. […] Tumor burden was evaluated via caliper measurements twice weekly over a 5-week period.
Mice began treatments approximately 2 weeks after injection of 5 million OVCAR8.EGFP cells, when the tumors were on average 0.5 cm in diameter (Table 3). The mice were treated for two cycles. Each cycle was 2 weeks long, consisting of 1 week on therapy and 1 week off. Tumor burden was evaluated via caliper measurements twice weekly over a 5-week period.

[2] = test system: survivin expression in SKOV3 cell line; assay: RT-PCR analysis of survivin expression after cisplatin, SKOV3; type: cell-based, human; conditions: up to 2 days of cisplatin exposure; data not shown
OVCAR8.EGFP.ffluc cells = assay: In vitro synergy experiment, Chou-Talalay analysis; type: cell-based, human; conditions: cisplatin <1 μM
Method: Tumor cells were plated at 3×10^3 cells per well in 96-well plates. Select wells also received NSC.CRAd-Survivin-pk7 at either a 1:1, 1:10, or 1:100 ratio. […] Cultures were incubated for 3 more days. Upon collection, media were replaced with that containing D-luciferin ([…]), and after a 10-min incubation, the resulting luminescent signal was quantified using a SpectraMax M3 microplate reader (Molecular Devices, CA, USA). Results are expressed as the percentage of surviving cells determined by comparing the luciferase signal of each sample relative to untreated control samples considered 100% viable. […] Each condition was replicated in quadruplet, and the experiment was conducted twice.

OVCAR8 peritoneal tumors = assay: PCR biodistribution of NSCs and virus in peritoneal tumors with or without cisplatin; type: in vivo; conditions: 2 days after administration, three tumors per mouse
Method: Female NOD-SCID mice (Jackson Labs) that were 6-8 weeks old were inoculated with 2 million OVCAR8.eGFP.ffluc cells via i.p. injection. After 3 weeks, mice (n=3) were administered i.p. 2×10^6 Dil-labeled NSC-CRAd-Survivin-pk7. Two days after NSC injection, tumors were harvested. Three tumors per mouse were digested using proteinase K, DNA was extracted (DNA Extraction from fixed tissues kit, Puragene), quantified using a nanodrop, then amplified by PCR using primers for v-Myc and hexon to test for the presence of NSCs and viral particles respectively. GAPDH was used as a loading control (351 bp). DNA purified from unmodified NSCs and NSC-CRAd-Survivin-pk7 was used as a positive control for PCR amplification of the v-Myc gene (replicon size 170 bp), and hexon (179 bp) respectively. Pure water was used as a negative control. PCR products were analyzed by agarose gel electrophoresis and staining of DNA bands with ethidium bromide. […] Sections (10 μm thick) were collected on positively charged slides (Thermo Fisher Scientific), immunostained for hexon (Goat Anti-Adenovirus FITC Conjugated Polyclonal Antibody, AB1056F, Millipore), counterstained with DAPI (1 ug/mL, Sigma), then imaged using the Zeiss Axio Observer Z1 fluorescence microscope (ZEISS Microscopy). […]

[3] = test system: survivin expression in OVCAR8 cell line; assay: RT-PCR analysis of survivin expression after cisplatin, OVCAR8; type: cell-based, human; conditions: up to 2 days of cisplatin exposure; data not shown

SMILES: N.N.[Cl][Pt][Cl] [cisplatin]
- tumor volume doubling time after the first treatment ([1]; control 7 days): 13 days
- tumor volume doubling time after the second treatment ([1]; control 15 days): not significantly different from that of the saline control
- survivin expression after cisplatin exposure [2]: did not significantly increase
- effect of low doses of cisplatin on OVCAR8 tumor cells (OVCAR8.EGFP.ffluc cells): unaffected
- hexon DNA detected in tumors (virus) (OVCAR8 peritoneal tumors): Neither hexon nor v-myc DNA was detected
- v-myc DNA detected in tumors (NSCs) (OVCAR8 peritoneal tumors): Neither hexon nor v-myc DNA was detected
- survivin expression after cisplatin exposure [3]: did not significantly increase
